Legend:
α-glucosidase [1] = target: T1, α-glucosidase (Saccharomyces cerevisiae, UniProt P53341); experiment: biochemical; type: biochemical
T1 construct: purchased Sigma-Aldrich Co. (St. Louis, MI, USA)
Procedure: To further investigate the inhibition kinetics of the candidate compounds, α-glucosidase activity was determined at different substrate concentrations. The Lineweaver-Burk expression method in Equation (1) was used to test the reaction of a series of compounds with the substrate pNαGP, and the values of maximum velocity (Vmax) and Michaelis-Menten constant (Km) were calculated.(1) 1/v=Km/Vmax1/[S]+1/Vmax where Vmax and Km are the maximum velocity of the enzyme and the Michaelis-Menten constant in the absence of inhibitor, respectively. [S] is the concentration of substrate and inhibitor.(2) Slope=Km/Vmax+Km/Vmax·KiI where v is the initial reaction rate, Vmax is the maximum initial reaction rate, [I] is the concentration of […], and Km is the Michaelis-Menten constant.

α-glucosidase [2] = target: T1, α-glucosidase; experiment: Fluorescence quenching experiment (Stern-Volmer); type: binding; conditions: for Kq (bimolecular quenching constant): given as number×10 with exponent 12
Procedure: The fluorescence quenching experiment was modified somewhat based on previous studies. Fluorescence was determined by titrating α-glucosidase (1.0 mL, 2 U/mL) with different concentrations of inhibited solutions (1.0 mL, 0–200 mM) and left to equilibrate for 5 min. […] Fluorescence burst analysis was performed based on the Stern-Volmer (3) equation.(3) F0/F=1+Kqτ0Q=1+KsvQ
F and F0 are the fluorescence intensities with and without inhibitor, respectively, Ksv is the Stern-Volmer bursting constant, Kq is the bimolecular bursting constant, and [Q] is the concentration of inhibitor.
When the bursting mode conforms to static bursting, the binding constant Ka and the number of binding sites for each enzyme can be calculated from Equation (4).(4) logF0−F/F=logKa+nlogQ
Ka is the binding constant and n is the number of binding sites.
The thermodynamic parameters ∆H, ∆S, and ∆G denote the change in heat, entropy, and free energy, respectively.

α-glucosidase [3] = target: T1, α-glucosidase; experiment: Synchronous fluorescence spectroscopy (RSQF); type: binding
Procedure: Changes in the microenvironment of tyrosine (Tyr) and tryptophan (Trp) residue fluorophores were detected simultaneously. The excitation and emission wavelength intervals were set to 15 nm and 60 nm, respectively, and the synchronized fluorescence spectra from 260 to 320 nm were determined. The synchronized fluorescence burst ratio (RSFQ) was calculated as follows:(7) RSQF=1−F/F0

C57BL/6J mice = experiment: In vivo starch digestion inhibition experiment (postprandial blood glucose); conditions: normal mice, 10 mg/kg by gavage, 2 g/kg starch, 0-120 min; p < 0.001 versus controls
Source text: After the in vitro validation, in order to further characterize the effect of the inhibitor on postprandial glycemic control, we performed in vivo characterization by gavage in mice. Eight-week-old male C57BL/6J mice (purchased from Beijing Huafukang Laboratory Animals, Beijing, China) were used for the experiments. The animal experimental procedures were approved by the Ethics Committee on Laboratory Animal Management and Welfare of Beijing Huafuqian Times Technology Co. Ltd. (Ethical Review Approval No. HYSD2023-04), and local and national ethical guidelines were strictly observed. All mice were placed in a controlled environment with a temperature of 25 °C, relative humidity of 60%, and a light/dark cycle of 12/12 h. Following overnight fasting, gastric intubation was performed on mice in the control group, acarbose group, […] group, […] group, […] group, and […] group. The control group received saline infusion to eliminate confounding factors during administration. […] The remaining groups each received a corresponding concentration (10 mg/kg) of the test compound dissolved in saline solution to evaluate inhibitor efficacy. 2 g/kg of starch was given after 5 min, and the […] at 0 min, 10 min, 20 min, 30 min, 40 min, 60 min, 90 min and 120 min.

T1 sequence (P53341 whole entry): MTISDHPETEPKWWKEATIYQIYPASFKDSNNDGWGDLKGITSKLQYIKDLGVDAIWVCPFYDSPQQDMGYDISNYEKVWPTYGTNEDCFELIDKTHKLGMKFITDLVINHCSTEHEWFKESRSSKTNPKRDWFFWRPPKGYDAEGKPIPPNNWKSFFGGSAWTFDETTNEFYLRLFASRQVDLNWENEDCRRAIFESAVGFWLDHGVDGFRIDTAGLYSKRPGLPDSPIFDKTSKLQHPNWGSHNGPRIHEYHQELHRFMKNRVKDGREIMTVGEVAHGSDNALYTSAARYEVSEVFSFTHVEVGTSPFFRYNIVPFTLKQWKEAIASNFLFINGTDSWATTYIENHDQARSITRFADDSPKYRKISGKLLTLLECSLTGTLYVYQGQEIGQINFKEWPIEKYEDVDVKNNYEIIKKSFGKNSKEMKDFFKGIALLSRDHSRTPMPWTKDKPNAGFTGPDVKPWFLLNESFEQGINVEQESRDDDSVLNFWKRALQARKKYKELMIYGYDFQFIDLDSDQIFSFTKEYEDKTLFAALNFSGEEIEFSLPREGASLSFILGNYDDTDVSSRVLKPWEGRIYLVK

C[C@H]1O[C@H](O[C@H]2[C@H](O)[C@@H](O)[C@@H](O[C@H]3[C@H](O)[C@@H](O)C(O)O[C@@H]3CO)O[C@@H]2CO)[C@H](O)[C@@H](O)[C@@H]1N[C@H]1C=C(CO)[C@@H](O)[C@H](O)[C@H]1O (some centres unmarked) [Acarbose, acarbose, reference compound]
Type of inhibition (α-glucosidase [1]): Mixed
Vmax (α-glucosidase [1]; [I] […] μM): 5.92±0.06 ×10-1µM/min
Vmax (α-glucosidase [1]; [I] 500 μM): 6.18±0.04 ×10-1µM/min
Vmax (α-glucosidase [1]; [I] 1000 μM): 5.90±0.03 ×10-1µM/min
Vmax (α-glucosidase [1]; [I] 2000 μM): 2.42±0.06 ×10-1µM/min
Vmax (α-glucosidase [1]; [I] […]): 5.96±0.06 ×10-1µM/min
Ksv (quenching constant) (α-glucosidase [2]; T 300.15 K): 0.01 ±0.01 104 /M
n (number of binding sites) (α-glucosidase [2]; T 300.15 K): 1.04
Kq (bimolecular quenching constant) (α-glucosidase [2]; T 300.15 K): 0.01 ×10^12 (M·S)-1
Ksv (quenching constant) (α-glucosidase [2]; T 305.15 K): 0.02 ±0.01 104 /M
n (number of binding sites) (α-glucosidase [2]; T 305.15 K): 0.98
Kq (bimolecular quenching constant) (α-glucosidase [2]; T 305.15 K): 0.02 ×10^12 (M·S)-1
RSQF values, Trp (Δλ = 60 nm) versus Tyr (Δλ = 15 nm) (α-glucosidase [3]): very low
blood glucose area under the curve (AUC), total glycemic exposure (C57BL/6J mice): significantly reduced

— paper PMC12525602, “Identification of Selective α-Glucosidase Inhibitors via Virtual Screening with Machine Learning” (Molecules, 2025)
